Tests used:
[1] = anhydrous crystalline forms I, II, III, IV and V; Journal of Pharmaceutical Sciences, 95, 1, 56-69 (2006); cited from earlier work
[2] = DVS isotherm (hygroscopicity, hydrate formation); format: physicochemical; conditions: for hygroscopicity: DVS isotherm plot (Figure 4 / Figure 11)
[3] = Polymorphic stability: maturation / slurrying of the salts in various solvents; format: physicochemical
Procedure: Example 6: Method for assessing polymorphic stability of the succinic acid salt and Form A of the fumaric acid salt of 5-chloro-3-(4-methanesulfonylphenyl)-6'-methyl-[2,3']bipyridinyl.
Approximately 50-100 mg of the salts under investigation were suspended in 1ml of water, ethanol, 1-propanol, 2-propanol, 1-butanol, 2-butanol, tert-butanol, 1-pentanol, acetone, methyl ethyl ketone, isobutyl methyl ketone, ethyl formate, methyl acetate, ethyl acetate, propyl acetate, isopropyl acetate, butyl acetate, isobutyl acetate, tetrahydrofuran, 1,4-dioxane, toluene, acetonitrile and N-methyl pyrrolidine. […] The excess solvent was removed and the samples evaporated to dryness in a vacuum oven at 25 °C.

| hygroscopicity [2] | stability with respect to hydrate formation ([2]; DVS isotherm plot, Figure 4) | polymorphic changes when maturated in various solvents ([3]; Example 6: suspended in 1 ml of solvent, agitated at 25°C for 35 days) | polymorphic conversion on slurrying ([3]; slurrying in an aliphatic alcohol or cyclic ether) | SMILES | instability of anhydrous crystalline forms [1] |
| --- | --- | --- | --- | --- | --- |
| – | – | – | – | Cc1ccc(-c2ncc(Cl)cc2-c2ccc(S(C)(=O)=O)cc2)cn1 [etoricoxib, 5-Chloro-3-(4-methanesulfonylphenyl)-6'-methyl-[2,3']bipyridinyl] | convert to hemihydrate |
| relatively non-hygroscopic | stable with respect to hydrate formation | lack of observed polymorphic changes | – | Cc1ccc(-c2ncc(Cl)cc2-c2ccc(S(C)(=O)=O)cc2)cn1.O=C(O)CCC(=O)O [succinic acid salt, succinic acid salt of 5-chloro-3-(4-methanesulfonylphenyl)-6'-methyl-[2,3']bipyridinyl] | – |
| relatively non-hygroscopic | – | – | Form B can be generated | Cc1ccc(-c2ncc(Cl)cc2-c2ccc(S(C)(=O)=O)cc2)cn1.O=C(O)/C=C/C(=O)O [Form A of the fumaric acid salt, fumaric acid salt of 5-chloro-3-(4-methanesulfonylphenyl)-6'-methyl-[2,3']bipyridinyl] | – |

— patent EP2601952A1, “Novel pharmaceutically acceptable salts and cocrystals of 5-chloro-3-(4-methanesulfonylphenyl)-6'-methyl-[2,3']bipyridinyl and their therapeutic uses” (Zentiva, k.s., priority 2011, dated 2013)
